Data as given in PubChem BioAssay (NCI).
Several values for one entry are separate records, joined by “and”; a condition that tells them apart may be missing. Equal entries are not always repeated.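 Results reflect a 48-hour exposure of cells in 96-well plates to compound at five concentrations. At the GI50, growth is halved. TGI denotes the concentration required for complete inhibition of growth.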

Tested on: MDA-MB-468 breast
Assay: inhibition of tumour cell growth, NCI panel, 48 h

SMILES | GI50 | TGI
CSc1nc(N)c2c(n1)NC(c1ccccc1)C1CCc3ccccc3C1=N2 (configuration not stated) | 84400 nM | > 100000 nM
Cc1cc(O)cc(C)c1/C=C/c1cncc(C(=O)OC(C)(C)C)c1 | 8410 nM | > 25000 nM
CNCCCn1c2c(c3ccc(F)cc3c1=O)C(=O)c1cc(OC)cnc1-2 | 220 nM | 660 nM
CC/C=C\C[C@H](O)C/C=C1/C(=O)C=C[C@@H]1C/C=C\CCCC(=O)NC | 940 nM | 2510 nM
COc1ccc(/C=N\NC(=O)c2ccc3nc(-c4ccc(Br)cc4)[nH]c3c2)cc1 | 2750 nM | 5970 nM
Oc1ccccc1C=Nc1ccccc1N=Cc1ccccc1O.[Cu+2] | 1730 nM | 13500 nM
O=C(Nc1cccc(-n2cc(-c3ccncc3)c(-c3ccc(O)c(Cl)c3)n2)c1)c1ccc(Cl)c(Cl)c1 | 16200 nM | > 100000 nM
CN(C)c1ccc(/C=N/NC(=O)c2cccc3ccccc23)c(Cl)c1 | 311 nM | 2570 nM
COc1ccc2nccc(/C=C/c3ccnc4ccc(OC)cc34)c2c1 | > 100000 nM | > 100000 nM
CN(C)CCOc1ccc(-c2cc(-c3ccc4c(c3)CC/C4=N\O)c(-c3ccncc3)o2)cc1 | 2800 nM | 6170 nM
O=Nc1c(O)c2ccccc2c2ccccc12 | 1810 nM | 3730 nM
COC(=O)[C@@H](OC)[C@@H]1Cc2cc3cc(OC4CC(OC5CC(O)C(O)C(C)O5)C(O)C(C)O4)c(C)c(O)c3c(O)c2C(=O)[C@H]1OC1CC(OC2CC(OC3CC(C)(O)C(O)C(C)O3)C(O)C(C)O2)C(O)C(C)O1 (some centres not stated) | 28.3 nM | 71.3 nM
O=C(COc1ccc(-c2nc3cc(Cl)c(Cl)cc3[nH]2)cc1)N=Nc1c(O)[nH]c2ccccc12 | 2600 nM | 6230 nM
Cc1ncc(-c2ccnc(Nc3ccc(S(C)(=O)=O)cc3)n2)n1C(C)C | 1120 nM | 2930 nM
CC1(C)CC(=O)c2c(ccc(C(=O)C[C@@H](N)CO)c2N)O1 | 561 nM | 6880 nM
CCN1C(=O)N(CC)C2C1NN=c1s/c(=C\c3cccc([N+](=O)[O-])c3)c(=O)n12 (configuration not stated) | 375 nM | > 100000 nM
CN1CCN(c2ccc(C(=O)Nc3cccc(C#Cc4cccc5[nH]nc(N)c45)c3)cc2C(F)(F)F)CC1 | 821 nM | 2390 nM
COc1cc(C2C3=C(COC3=O)Nc3cc4c(cc32)OCO4)cc2c1OCO2 (configuration not stated) | 55.9 nM | 242 nM
COc1ccc(Oc2cc(NCCC(F)(F)F)c3ncc(-c4ccc(C(=O)NC5CC5)c(C)c4)n3n2)c(F)c1F | 3650 nM | > 100000 nM
CC(=O)c1ccc2c(c1)N(CCCN(C)C)c1ccccc1S2 | 10400 nM | 22800 nM
CC1(C)N=C(N)N=C(N)N1c1ccc(Cl)c(Cl)c1 | 337 nM | > 57500 nM

SMILES | GI50 | TGI
COc1ccc(/C(=N/O)c2cc(OC)c(OC)c(OC)c2)c(OC)c1N | 3540 nM | > 100000 nM
C[C@]12CC[C@@H]3c4ccc(O)cc4CC[C@H]3[C@@H]1CC[C@@H]2NS(=O)(=O)c1ccc2ccccc2c1 | 3620 nM | 15200 nM
Brc1ccc2[nH]cc(-c3nn4cc(-c5nccs5)nc4s3)c2c1 | 3260 nM | 18300 nM
CC(=O)/C(=C\c1c(-c2ccccc2)[nH]c2ccccc12)S(=O)(=O)c1ccccc1 | 987 nM | 14800 nM
COc1ccc(C(=O)OC2C(OC3C(O)COC(O[C@H]4C[C@H]5[C@@H]6CC=C7C[C@@H](O)CC[C@]7(C)[C@H]6CC[C@]5(C)[C@H]4[C@H](C)C(=O)CCC(C)C)C3OC(C)=O)OCC(O)C2O)cc1 (some centres not stated) | 6.66 nM | 1530 nM
N=C(N)SCc1ccc([N+](=O)[O-])cc1[N+](=O)[O-] | 2520 nM | 8550 nM
COc1ccc2[nH]c(O)c(/C=c3/ccc4c(c3)N=C(c3ccc(F)cc3)N=4)c2c1 | 4140 nM | 22300 nM
Cn1c2ccccc2c2nnc(NNCc3ccccn3)nc21 | 268 nM | 1160 nM
O=C(c1ccccc1O)c1[nH]c(Cl)c(Cl)c1-n1c(C(=O)c2ccccc2O)cc(Cl)c1Cl | 436 nM and 339 nM | 6530 nM and 10400 nM
COc1cc(NC(C)CCCN)c2ncccc2c1Sc1ccc(Cl)cc1 (configuration not stated) | 1700 nM | 3110 nM
Oc1c(CNCCNCc2cc(Cl)cc(Cc3ccccc3)c2O)cc(Cl)cc1Cc1ccccc1 | 307 nM | 4430 nM
CCN(Cc1cccc(F)c1F)c1ccc(CO)c(Cl)c1 | < 12.5 nM | 35 nM
Clc1ccc(N2CCC(N3CCCC3)CC2)cc1-c1nc2ccccc2[nH]1 | 12100 nM | 26300 nM
Cc1cc2c(cc1C)[n+](Cc1ccc3ccccc3n1)cn2Cc1ccc2ccccc2n1 | 444 nM | 1950 nM
COc1ccc(-c2nc(-c3nc4ccc(C(F)(F)F)cc4[nH]3)c3ccccn23)cc1 | 13400 nM | > 100000 nM
FC(F)(F)c1[nH]ncc1-c1nc2ccc3[nH]ncc3c2c2c1CCCC2 | 1860 nM | 4670 nM
COC(=O)/C(=C\c1c(-c2ccccc2)[nH]c2ccccc12)S(C)(=O)=O | 5400 nM | 84800 nM
CNC(=O)c1cc2c(Oc3ccc(NC(=S)NC(=O)Cc4ccccc4)cc3F)ccnc2cc1OC | > 29900 nM | > 100000 nM
CCCCCSC1C2C(=O)C(Br)=CC13CCNc1c(O)c4c5c(c13)=[N+]2CCC=5C=N4 (configuration not stated) | 390 nM | 1090 nM
CN(C)c1ccc(C(=C2C=CC(=[N+](C)C)C=C2)c2ccccc2Cl)cc1 | 220 nM | 655 nM
